This is an account of results in patent publication US7645595B2, “Method of production of artificial skin” (Shiseido Company, Ltd., priority 2000, dated 2010).

Assay [1] relates to artificial skin (skin model: contracted collagen gel with human dermal fibroblasts plus epidermal keratinocytes). Description: Artificial skin culture with matrix metalloproteinase inhibitor: basement membrane formation seen in cross-section (Example 1, FIG. 1). Format: cell-based. The settings on record: cultured 2 weeks, versus control without inhibitor. Here is the method: Collagen gel was obtained by preparing 10 ml of a collagen solution of suspended fibroblasts (0.3 to 1×10^5 cells/ml) originating in human dermis (product I-AC of Koken Co., Ltd. was used for the collagen) on ice followed by gelling the collagen at 37° C. in a 60 mm Petri dish. Next, the gel was peeled from the walls of the Petri dish and the collagen gel was contracted in a CO2 incubator.
This contracted collagen gel equivalent to dermis was placed on a metal mesh and a glass ring (inner diameter: 12 mm) was placed over this gel. 0.4 ml of a suspension of epidermal keratinocytes (1×10^6/ml) (mixed medium of KGM-DMEM containing 5% fetal calf serum (1:1)) were placed inside the glass ring to prevent leakage of liquid. After adhering keratinocytes in a CO2 incubator overnight, the ring was removed on the following day.
After inoculating the epidermic cells, the medium was changed to that containing either (1) 10 μM CGS27023A (matrix metalloproteinase inhibitor) or (2) 300 μM MMP-inhibitor (p-NH2-Bz-Gly-Pro-D-Leu-D-Ala-NHOH (FN-437) (BBRC, 1994, 199, p. 1442-1446) (acquired from Cabbiochem. Novabiochem Corporation) (matrix metalloproteinase inhibitor)) starting in the first week, and then replaced with medium containing the same type and same concentration of matrix metalloproteinase inhibitor every 2-3 days after that and cultured for 2 weeks. […]

The test system of assay [2] is Skin Model (artificial skin); basement membrane components laminin 5, type IV collagen, type VII collagen. Kind of assay: Artificial skin culture with MMP inhibitor and matrix protein production promoting agent: H&E staining and immunostaining for LN5, IVC, VIIC (Example 2, Table 1, FIG. 2-4). Format: cell-based, human. To be noted: CGS27023A 10 μM, TGFa/TGFb1 10 ng/ml, versus control. Here is the method:
Although the same method as Example 1 was repeated, the following substances were used as test substances. • (1) 10 μM matrix metalloproteinase inhibitor CGS27023A only; • (2) 10 μM matrix metalloproteinase inhibitor CGS27023A and 10 ng/ml of matrix […] protein production promoting agent, Transforming Growth Factor α (TGFa); • (3) 10 μM matrix metalloproteinase inhibitor CGS27023A and 10 ng/ml of matrix protein production promoting agent, Transforming Growth Factor β1 (TGFb1); • (4) 10 μM matrix metalloproteinase inhibitor CGS27023A, 10 ng/ml of matrix protein production promoting agent, Transforming Growth Factor α (TGFa) and 10 ng/ml of Transforming Growth Factor β1 (TGFb1); and • (5) culturing of a control to which none of the above were added. The formed artificial skin was stained by hematoxylin-eosin (H & E) and immunostaining (using anti-laminin 5 (LN5) antibody, anti-type IV collagen (IVC) antibody, and anti-type VII collagen (VIIC) antibody). Culturing was carried out in the same manner as above using the following plant extracts instead of the above matrix metalloproteinase inhibitor CGS27023A.

On to “p-NH2-Bz-Gly-Pro-D-Leu-Ala-NHOH [MMP-inhibitor]”, for which, in assay [1] (300 μM in medium), the “Promotion of basement membrane formation (FIG. 1)” value is reported as “promotion of basement membrane formation was clearly observed”.

On to `COc1ccc(S(=O)(=O)N(Cc2cccnc2)[C@@H](C(=O)NO)C(C)C)cc1.Cl` [CGS27023A, N-hydroxy-2(R)-[[(4-methoxyphenyl)sulfonyl](3-picolyl)amino]-3-methylbutanamide hydrochloride], for which the “Promotion of basement membrane formation (FIG. 1)” value in assay [1] (10 μM in medium) was “promotion of basement membrane formation was clearly observed”. Also, in assay [2], the “Adhesion between epidermis and dermis” value is “adhesion between the epidermis and dermis was clear”.
